{"source": "paper PMC8509676", "about": "“Residual Helicity at the Active Site of the Histidine Phosphocarrier, HPr, Modulates Binding Affinity to Its Natural Partners” (International Journal of Molecular Sciences, 2021)", "key": {"[1]": {"assay": "TFE titration followed by far-UV CD (disordered-helical two-state equilibrium)", "format": "physicochemical", "experimental": "For experiments in the presence of TFE, the same set of experimental parameters was used. Cosolvent concentrations were indicated in percentage of volume (%). […] The peptide concentration for these experiments was 20 µM."}, "[2]": {"assay": "Far-UV CD, helicity from molar ellipticity at 222 nm", "format": "physicochemical", "conditions": "5 °C", "experimental": "Spectra were collected on a Jasco J810 spectropolarimeter (Jasco, Tokyo, Japan) interfaced with a Peltier unit. Far-UV measurements were performed with samples placed in quartz cells with a 0.1 cm path length (Hellma, Kruibeke, Belgium), with a response time of 2 s, a band width of 1 nm, and a scan velocity of 50 nm/min. For all peptides, a wide range of concentrations (10–50 µM) was used to determine whether either the shape or the intensity of the spectra was concentration-dependent. None of those features changed in the concentration range explored. The experiments in aqueous solution were acquired at 5 °C in Tris buffer (50 mM, pH 7.0). Raw ellipticity was converted to molar ellipticity, [Θ], from which the fraction of helical populations was determined as previously described. For the experiments in the presence of each protein (repeated three times), the same concentration used in the fluorescence experiments was used, and the experimental set-up was the same as described above for the isolated peptides."}, "[3]": {"conditions": "TFE titration by far-UV CD, 20 µM peptide, two-state fit, fitting errors"}}, "data": [{"substance": "Ac-GWAEGLHARPASIFVRAATATG-NH2 [Wild-type]", "values": [{"measurement": "[TFE]1/2", "setting": "[1]; [3]", "value": "23.2 ± 0.5 % (v/v)"}, {"measurement": "m", "setting": "[1]; [3]", "value": "166 ± 23 cal/mol (% (v/v))"}, {"measurement": "percentage of helical population (in parentheses)", "setting": "[1]; from ∆G^water assuming a two-state conformational equilibrium", "value": 0.10, "unit": "%"}, {"measurement": "∆G^water", "setting": "[1]; product of m- and [TFE]1/2 values, error propagation", "value": "3.8 ± 0.5", "unit": "kcal/mol"}, {"measurement": "[Θ]^222 (value in parentheses)", "setting": "[2]; 50 mM Tris pH 7.0", "value": "−612.44", "unit": "deg cm^2 dmol^−1"}, {"measurement": "Helicity (%)", "setting": "[2]; 50 mM Tris pH 7.0, from [Θ]^222 assuming −39,500 deg cm^2 dmol^−1 for a fully formed α-helix", "value": 1.6, "unit": "%"}]}]}
